# Data from ChEMBL document CHEMBL1149724, “Nakahalene and Cytotoxic principles of Formosan Rhamnus Species” (1992).
# How the values were obtained:
# KB = experiment: Cytotoxicity against human KB cells; type: functional; details: read-out: ED50 (the source's name)
# [1] = Cytotoxicity against human PLC/PRF/5 cells; type: functional; details: read-out: ED50 (the source's name)
Structure (SMILES),EC50 (KB) [µg/mL],EC50 [1] [µg/mL]
Cc1cc(O)c2c(c1)C(=O)c1cccc(O)c1C2=O [CHRYSOPHANOL],5.68,3.23
Cc1cc(O)c2c(c1)C(=O)c1cc(O)cc(O)c1C2=O [EMODIN],3.46,5.91
Cc1cc(O)c2c(c1)C(=O)c1cc(O[C@@H]3OC[C@](O)(CO)[C@H]3O)cc(O)c1C2=O [FRANGULIN B],2.49,0.8
COc1cc(O)c2c(c1)C(=O)c1cc(C)cc(O)c1C2=O [PHYSCION],1.55,1.44
